One block for each compound: values may come before it.
Assays:
[1] = molecular target: T1, Sodium-dependent dopamine transporter (Rattus norvegicus, UniProt P23977); assay: Inhibition of [3H]- Mazindol binding to dopamine transporter of rat striatal membrane.
[2] = molecular target: T1, Sodium-dependent dopamine transporter; assay: Inhibition of [3H]DA binding to dopamine transporter of rat brain synaptosomes; type: subcellular
[3] = molecular target: Norepinephrine transporter (Rattus norvegicus, UniProt Q9WTR4); assay: Inhibition of [3H]NE binding to norepinephrine transporter of rat brain synaptosomes; type: subcellular
[4] = molecular target: Sodium-dependent serotonin transporter (Rattus norvegicus, UniProt P31652); assay: Inhibition of [3H]-5-HT binding to serotonin transporter of rat brain synaptosomes; type: subcellular
Chain of Sodium-dependent serotonin transporter (P31652 whole entry): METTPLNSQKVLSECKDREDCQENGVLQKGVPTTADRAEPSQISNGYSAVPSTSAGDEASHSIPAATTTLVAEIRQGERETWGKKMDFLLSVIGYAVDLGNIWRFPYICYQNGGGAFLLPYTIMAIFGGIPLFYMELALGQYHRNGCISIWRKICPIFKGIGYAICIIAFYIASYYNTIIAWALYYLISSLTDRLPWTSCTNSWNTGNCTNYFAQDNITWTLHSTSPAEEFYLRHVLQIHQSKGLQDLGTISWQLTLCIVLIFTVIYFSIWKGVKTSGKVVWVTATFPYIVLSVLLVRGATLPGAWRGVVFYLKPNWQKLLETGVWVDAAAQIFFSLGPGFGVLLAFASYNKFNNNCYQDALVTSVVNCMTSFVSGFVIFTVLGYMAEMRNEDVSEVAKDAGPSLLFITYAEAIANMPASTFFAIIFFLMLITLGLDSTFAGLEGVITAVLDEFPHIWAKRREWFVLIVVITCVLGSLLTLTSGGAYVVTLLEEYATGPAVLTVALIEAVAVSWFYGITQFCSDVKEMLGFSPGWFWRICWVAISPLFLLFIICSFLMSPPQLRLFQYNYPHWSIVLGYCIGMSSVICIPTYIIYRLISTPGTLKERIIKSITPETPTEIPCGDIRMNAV

Chain of Norepinephrine transporter (Q9WTR4 whole entry): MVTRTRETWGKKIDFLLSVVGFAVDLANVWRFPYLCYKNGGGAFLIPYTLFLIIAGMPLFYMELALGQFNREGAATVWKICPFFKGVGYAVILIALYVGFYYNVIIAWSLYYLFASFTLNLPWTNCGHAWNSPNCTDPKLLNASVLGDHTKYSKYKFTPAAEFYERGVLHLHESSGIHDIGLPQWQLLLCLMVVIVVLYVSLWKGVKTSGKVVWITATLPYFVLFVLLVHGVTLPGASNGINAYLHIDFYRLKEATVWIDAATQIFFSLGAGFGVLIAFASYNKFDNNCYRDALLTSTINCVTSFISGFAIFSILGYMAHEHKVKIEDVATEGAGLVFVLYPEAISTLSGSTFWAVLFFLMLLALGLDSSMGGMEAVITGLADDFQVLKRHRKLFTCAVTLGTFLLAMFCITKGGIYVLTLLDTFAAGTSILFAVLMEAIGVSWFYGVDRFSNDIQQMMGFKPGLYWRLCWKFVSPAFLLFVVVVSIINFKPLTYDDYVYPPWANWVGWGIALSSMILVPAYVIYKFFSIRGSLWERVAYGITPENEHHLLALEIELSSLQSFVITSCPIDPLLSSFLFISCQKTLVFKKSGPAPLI
T1 sequence (P23977 whole entry): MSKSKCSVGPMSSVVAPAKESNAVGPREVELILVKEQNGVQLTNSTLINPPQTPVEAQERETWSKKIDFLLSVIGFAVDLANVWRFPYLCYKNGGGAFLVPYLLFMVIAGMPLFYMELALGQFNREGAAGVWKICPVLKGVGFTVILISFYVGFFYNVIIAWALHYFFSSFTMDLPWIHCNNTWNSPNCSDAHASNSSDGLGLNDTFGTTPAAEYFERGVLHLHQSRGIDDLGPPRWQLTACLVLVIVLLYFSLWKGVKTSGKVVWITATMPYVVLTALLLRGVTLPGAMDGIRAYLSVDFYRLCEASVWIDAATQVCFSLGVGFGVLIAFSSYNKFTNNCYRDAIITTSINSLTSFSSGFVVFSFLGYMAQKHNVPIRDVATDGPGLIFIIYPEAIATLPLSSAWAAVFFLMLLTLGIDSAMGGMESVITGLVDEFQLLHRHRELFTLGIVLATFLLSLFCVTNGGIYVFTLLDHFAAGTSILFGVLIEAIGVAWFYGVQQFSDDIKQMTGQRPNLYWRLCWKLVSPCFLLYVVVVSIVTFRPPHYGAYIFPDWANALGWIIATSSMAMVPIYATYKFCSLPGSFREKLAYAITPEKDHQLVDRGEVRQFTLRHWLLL

SMILES: CC(C)(C)O/N=C1\CN2CC[C@@H](c3ccc(Cl)cc3)C1C2 (some centres undefined)
Ki [1]: 641 nM
Ki [2]: 725 nM
Ki [3]: 287 nM
Ki [4]: 137 nM

SMILES: CO/N=C1\CN2CC[C@@H](c3ccc(Cl)cc3)C1C2 (stereo in doubt; (-)-7)
Ki [3]: 652 nM
Ki [4]: 2530 nM

SMILES: CO/N=C1/CN2CC[C@@H](c3ccc(Cl)cc3)C1C2 (some centres undefined)
Ki [3]: 232 nM
Ki [4]: > 2000 nM

SMILES: COC(=O)C1CN(C)CCC1c1ccc(Cl)cc1 (single isomer, unassigned; (+))
Ki [1]: 248 nM
Ki [2]: 228 nM
Ki [3]: 90 nM
Ki [4]: 5880 nM

SMILES: Clc1ccc([C@@H]2CCN3C/C(=N\OCCCc4ccccc4)C2C3)cc1 (some centres undefined)
Ki [1]: 53 nM
Ki [2]: 41 nM
Ki [3]: 483 nM
Ki [4]: 292 nM

SMILES: CN1CCC(c2ccc(Cl)cc2)C(C(=O)OCCC(c2ccccc2)c2ccccc2)C1 (single isomer, unassigned; (+))
Ki [1]: 420 nM
Ki [2]: 1160 nM
Ki [3]: 3140 nM
Ki [4]: 2590 nM

SMILES: CN1CCC(c2ccc(Cl)cc2)C(C(=O)OCCCCCc2ccccc2)C1 (single isomer, unassigned; (+))
Ki [1]: 52 nM
Ki [2]: 53 nM
Ki [3]: 382 nM
Ki [4]: 1790 nM

SMILES: CN1CCC(c2ccc(Cl)cc2)C(C(=O)OCCCc2ccccc2)C1 (single isomer, unassigned; (+))
Ki [1]: 1490 nM
Ki [2]: 1420 nM
Ki [3]: 72 nM
Ki [4]: 2160 nM

Ki [2]: 1860 nM
Ki [3]: 1550 nM
Ki [4]: 117 nM
SMILES: Clc1ccc([C@@H]2CCN3C/C(=N\OCc4ccccc4)C2C3)cc1 (some centres undefined)

SMILES: CO/N=C1/CN2CC[C@H](c3ccc(Cl)cc3)C1C2 (some centres undefined)
Ki [3]: 240 nM
Ki [4]: 856 nM

SMILES: CO/N=C1\CN2CC[C@H](c3ccc(Cl)cc3)C1C2 (stereo in doubt; (-)-6)
Ki [3]: 305 nM
Ki [4]: 503 nM

SMILES: CO/N=C1\CN2CC[C@@H](c3ccc(Cl)cc3)C1C2 (single isomer, unassigned; (+))
Ki [3]: > 4000 nM
Ki [4]: 1790 nM

SMILES: CO/N=C1\CN2CC[C@H](c3ccc(Cl)cc3)C1C2 (stereo in doubt; (+)-7)
Ki [3]: 871 nM
Ki [4]: 2640 nM
